Source: article PMC5743070 (The Journal of Biological Chemistry, 2017)
pKd: −log10 of the molar value. Values joined by “and” are separate entries in the source; they are usually repeats but may differ in a detail not shown here. Equal entries are not always repeated. Where two headings read alike, the source gives them in different places.

Target: T1, TTD (UHRF1_121–286) (Homo sapiens, UniProt Q96T88)
T1 construct: UHRF1_121–286 corresponding to the TTD; made in house
T1 sequence (Q96T88 121-286): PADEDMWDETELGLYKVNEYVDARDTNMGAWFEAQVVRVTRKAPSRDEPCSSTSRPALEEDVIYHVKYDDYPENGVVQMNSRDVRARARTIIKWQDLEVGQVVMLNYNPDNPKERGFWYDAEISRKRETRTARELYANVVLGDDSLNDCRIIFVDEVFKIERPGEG
Experiment: ITC of BPC binding to TTD
Method: For ITC measurements of TTD–PHD (UHRF1_126–366) interaction with H3K9me3, samples were dialyzed into a buffer containing 10 mM HEPES (pH 7.5), 150 mM NaCl, 1 mM TCEP, and 30 μM ZnCl2. […] A preliminary peptide injection of 0.06 μl was followed by subsequent 2-μl injections into the sample cell containing 167 μl of 50 μM TTD–PHD. Where indicated, 1.5 mM BPC or 1.5 mM PBR peptide was included in the injection syringe and sample cell. The reported KD and n values are based on the average from two measurements. For ITC measurements of TTD (UHRF1_121–286) interaction with BPC, the protein was buffered in 20 mM Tris (pH 7.4), 50 mM NaCl, and 5% DMSO. BPC was brought to a concentration of 2.5 mM and injected into the sample cell containing 40 μM protein. The data were acquired on a Nano ITC from TA Instruments at 25 °C and fitted with an independent-binding site model using NanoAnalyze software (v3.7.0). […]
Binding of BPC in the groove of TTD.
labeled (at the N-terminus) H3K9me3(1-25) peptide, (B) ITC, and (C) DSF. […]

[1] = ITC, 2.5 mM BPC into 40 μM TTD, pH 7.4, 5% DMSO, 25 °C

In the case of `N=C(N)N1CCC(Cc2ccccc2)CC1` [BPC, 4-benzylpiperidine-1-carboximidamide], the pKd (ITC, 2.5 mM BPC into 40 μM TTD, 20 mM Tris pH 7.4, 50 mM NaCl, 5% DMSO, 25 °C, independent-binding site model, read-out: KD) was 4.34, the “H (enthalpy of binding, ITC)” value [1] was -2.6 kcal/mol and the “S (entropy of binding, ITC)” value [1] was 11.0 cal/mol∙K. For the same compound, the “calculated ligand efficiency (binding energy per heavy atom)” value (calculated from KD for TTD) was 0.38 and the pKd (isolated TTD, estimated using ITC and DSF, read-out: estimated KD) was 4.30 and ~4.30.
